Source: patent US12516056B2, “Compounds for inhibition of janus kinase 1” (MANKIND PHARMA LTD., priority 2019, dated 2026)
Read-outs that look alike come from different tables or passages of the source.

Columns and labels:
[1] = target: T1, Recombinant JAK1 (Homo sapiens, UniProt P23458); assay: JAK biochemical assay (LANCE Ultra TR-FRET), JAK1
T1 construct: purchased Carna Biosciences
How it was run: (§1)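 % inhibition relative to vehicle was derived from TR-FRET signal proportional to ULight-substrate phosphorylation. Reactions used recombinant kinase in HEPES pH 7.5 buffer containing EGTA, MgCl2, DTT and Tween-20.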

[2] = target: T2, Recombinant JAK2 (Homo sapiens, UniProt O60674); assay: JAK biochemical assay (LANCE Ultra TR-FRET), JAK2; conditions: read-out: Biochemical IC50 (nM) JAK2
T2 construct: purchased Carna Biosciences
How it was run: as §1

[3] = target: T3, Recombinant JAK3 (Homo sapiens, UniProt P52333); assay: JAK biochemical assay (LANCE Ultra TR-FRET), JAK3
T3 construct: purchased Carna Biosciences
T3 sequence (P52333 1-1124): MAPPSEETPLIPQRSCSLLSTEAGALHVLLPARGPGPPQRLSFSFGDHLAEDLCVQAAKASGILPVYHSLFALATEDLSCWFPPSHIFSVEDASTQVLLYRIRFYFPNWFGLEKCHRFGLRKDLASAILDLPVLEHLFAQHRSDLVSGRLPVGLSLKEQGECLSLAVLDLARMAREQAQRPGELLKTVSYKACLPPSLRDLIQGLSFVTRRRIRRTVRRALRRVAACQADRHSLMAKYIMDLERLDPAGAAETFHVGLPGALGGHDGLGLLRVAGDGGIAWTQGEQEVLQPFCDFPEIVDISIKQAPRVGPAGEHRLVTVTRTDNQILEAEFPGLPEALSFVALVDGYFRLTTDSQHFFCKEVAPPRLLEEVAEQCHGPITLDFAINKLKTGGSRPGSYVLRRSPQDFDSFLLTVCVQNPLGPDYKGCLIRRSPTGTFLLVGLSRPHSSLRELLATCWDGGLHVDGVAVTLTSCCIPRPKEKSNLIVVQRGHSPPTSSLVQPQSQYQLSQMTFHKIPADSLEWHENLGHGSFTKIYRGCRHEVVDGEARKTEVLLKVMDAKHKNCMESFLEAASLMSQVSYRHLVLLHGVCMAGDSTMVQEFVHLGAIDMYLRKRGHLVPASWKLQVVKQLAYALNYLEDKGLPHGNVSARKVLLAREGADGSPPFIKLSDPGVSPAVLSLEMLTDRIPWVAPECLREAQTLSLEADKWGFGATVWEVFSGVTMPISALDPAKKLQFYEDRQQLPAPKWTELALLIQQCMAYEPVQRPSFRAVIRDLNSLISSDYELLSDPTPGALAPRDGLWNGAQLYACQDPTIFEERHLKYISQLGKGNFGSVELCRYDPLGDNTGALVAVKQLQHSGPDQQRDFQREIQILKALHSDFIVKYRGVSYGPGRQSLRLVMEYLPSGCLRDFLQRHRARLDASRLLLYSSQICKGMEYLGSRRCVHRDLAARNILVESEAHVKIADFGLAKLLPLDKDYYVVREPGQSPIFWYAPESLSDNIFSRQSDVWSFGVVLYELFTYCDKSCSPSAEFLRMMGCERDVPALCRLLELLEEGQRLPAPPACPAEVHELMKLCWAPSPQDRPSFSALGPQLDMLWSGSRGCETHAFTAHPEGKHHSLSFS
How it was run: as §1

[4] = target: T4, Recombinant TYK2 (Homo sapiens, UniProt P29597); assay: JAK biochemical assay (LANCE Ultra TR-FRET), TYK2
T4 construct: purchased Carna Biosciences
How it was run: as §1

[5] = tested on: STAT3 phosphorylation by IL-6 in TF-1 cells; assay: JAK cellular assay: STAT3 phosphorylation by IL-6 in TF-1 cells (HTRF); assay type: cell-based; conditions: Homo sapiens, TF-1, TF-1 cells
How it was run: (§2)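 Phospho-STAT3 (IL-6, 30 ng/ml) and phospho-STAT5 (GMCSF, 5 ng/ml) read by HTRF in lysates after 20 min cytokine exposure, minus unstimulated-cell background. Cells were serum-starved overnight, plated at 120,000/well, given compound 30 min at 37 °C beforehand; DMSO 0.2% final.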

[6] = tested on: STAT5 phosphorylation by GMCSF in TF-1 cells; assay: JAK cellular assay: STAT5 phosphorylation by GMCSF in TF-1 cells (HTRF); assay type: cell-based; conditions: Homo sapiens, TF-1 cells
How it was run: as §2

[7] = tested on: STAT5 phosphorylation by IL-2 in HT-2 cells; assay: STAT5 phosphorylation by IL-2 in HT-2 cells (HTRF); assay type: cell-based; conditions: HT2, HT-2 cells
How it was run: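 Readout is HTRF detection of phospho-STAT5 in lysates, corrected for signal from unstimulated cells. Before lysis, HT-2 cells starved in 10% FBS medium received compound for 30 min (0.2% DMSO final, 37 °C), followed by 50 U/ml recombinant human IL-2 for 20 min.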

[8] = tested on: IFN-γ production in NK 92 cells by IL-12; assay: IFN-γ production in NK 92 cells by IL-12 (ELISA); conditions: NK92, IFN-γ detection from cell supernatants, read-out: Cell based IC50 (μM) NK-92/IL-12*
Procedure: NK 92 cells were cultured in medium without IL-2 for overnight. Next day, 5000 cells per well NK 92 cells were seeded in a 96 well plate. Compounds were added to cells and incubated for 1 hour. Later IL-12, 10 U/ml was added to cells and incubated for overnight. Supernatant was collected from the wells and IFN-7 secretion was measured by using human IFN-7 ELISA kit. Absorbance was measured at 450 nm in BMG FLUOstar. Background signal obtained from cells which were not activated with cytokines, was subtracted from vehicle controls and compound treated wells.

[9] = tested on: collagen induced mouse arthritis model; assay: Mouse model of rheumatoid arthritis (collagen induced arthritis); assay type: in vivo; conditions: orally dosed, QD for 21 days; reference filgotinib
Excerpt: Rheumatoid arthritis (RA) is an autoimmune disease that can cause joint pain and damage throughout the body. Several cytokines such as IL-6 and IFN-γ activate the Janus kinase/signal transducers and activators of transcription (JAK/STAT) pathway. Inhibition of JAK/STAT pathway is considered as one of the therapeutic options for treatment of rheumatoid arthritis. Rodent models of arthritis can be used to evaluate the therapeutic potential of compounds dosed preventatively or therapeutically. These models include but are not limited to mouse or rat collagen-induced arthritis, rat adjuvant-induced arthritis, and collagen antibody-induced arthritis.
Compounds described herein are tested for JAK/STAT pathway inhibition driven efficacy in collagen induced mouse arthritis model. Compounds were orally dosed, QD for 21 days and at the end of the study, clinical symptoms, body weight and histopathology of ankle and paws were measured. Arthritis score was calculated for the compounds as well as reference standard, filgotinib.

T1 sequence (P23458 whole entry): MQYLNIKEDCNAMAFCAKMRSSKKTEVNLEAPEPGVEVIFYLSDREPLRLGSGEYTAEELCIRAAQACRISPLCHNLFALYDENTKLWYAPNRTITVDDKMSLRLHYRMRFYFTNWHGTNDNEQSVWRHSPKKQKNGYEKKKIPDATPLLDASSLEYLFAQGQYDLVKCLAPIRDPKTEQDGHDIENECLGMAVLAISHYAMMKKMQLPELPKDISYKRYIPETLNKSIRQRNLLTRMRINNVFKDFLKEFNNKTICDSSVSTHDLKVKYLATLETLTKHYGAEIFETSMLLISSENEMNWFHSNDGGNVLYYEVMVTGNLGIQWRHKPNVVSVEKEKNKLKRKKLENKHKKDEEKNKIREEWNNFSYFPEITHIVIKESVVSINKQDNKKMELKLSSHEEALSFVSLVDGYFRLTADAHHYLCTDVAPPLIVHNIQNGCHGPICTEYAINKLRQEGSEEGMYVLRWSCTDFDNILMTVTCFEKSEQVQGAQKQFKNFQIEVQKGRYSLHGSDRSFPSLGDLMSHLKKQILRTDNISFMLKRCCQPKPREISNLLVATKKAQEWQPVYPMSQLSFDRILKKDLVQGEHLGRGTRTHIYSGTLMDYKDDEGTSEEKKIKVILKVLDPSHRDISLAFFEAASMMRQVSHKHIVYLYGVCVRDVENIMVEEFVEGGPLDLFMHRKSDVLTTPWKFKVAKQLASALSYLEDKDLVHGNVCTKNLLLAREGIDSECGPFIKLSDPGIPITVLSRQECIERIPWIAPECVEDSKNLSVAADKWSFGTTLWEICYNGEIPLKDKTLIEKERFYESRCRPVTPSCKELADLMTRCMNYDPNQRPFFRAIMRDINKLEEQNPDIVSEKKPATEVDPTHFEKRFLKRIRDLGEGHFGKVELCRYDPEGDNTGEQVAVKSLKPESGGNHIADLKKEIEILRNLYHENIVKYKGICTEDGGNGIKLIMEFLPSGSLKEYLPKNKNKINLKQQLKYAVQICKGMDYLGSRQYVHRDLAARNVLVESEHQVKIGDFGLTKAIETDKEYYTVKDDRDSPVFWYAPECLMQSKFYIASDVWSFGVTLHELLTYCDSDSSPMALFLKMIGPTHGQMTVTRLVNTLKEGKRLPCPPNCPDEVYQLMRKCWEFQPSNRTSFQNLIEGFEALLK
T4 sequence (P29597 whole entry): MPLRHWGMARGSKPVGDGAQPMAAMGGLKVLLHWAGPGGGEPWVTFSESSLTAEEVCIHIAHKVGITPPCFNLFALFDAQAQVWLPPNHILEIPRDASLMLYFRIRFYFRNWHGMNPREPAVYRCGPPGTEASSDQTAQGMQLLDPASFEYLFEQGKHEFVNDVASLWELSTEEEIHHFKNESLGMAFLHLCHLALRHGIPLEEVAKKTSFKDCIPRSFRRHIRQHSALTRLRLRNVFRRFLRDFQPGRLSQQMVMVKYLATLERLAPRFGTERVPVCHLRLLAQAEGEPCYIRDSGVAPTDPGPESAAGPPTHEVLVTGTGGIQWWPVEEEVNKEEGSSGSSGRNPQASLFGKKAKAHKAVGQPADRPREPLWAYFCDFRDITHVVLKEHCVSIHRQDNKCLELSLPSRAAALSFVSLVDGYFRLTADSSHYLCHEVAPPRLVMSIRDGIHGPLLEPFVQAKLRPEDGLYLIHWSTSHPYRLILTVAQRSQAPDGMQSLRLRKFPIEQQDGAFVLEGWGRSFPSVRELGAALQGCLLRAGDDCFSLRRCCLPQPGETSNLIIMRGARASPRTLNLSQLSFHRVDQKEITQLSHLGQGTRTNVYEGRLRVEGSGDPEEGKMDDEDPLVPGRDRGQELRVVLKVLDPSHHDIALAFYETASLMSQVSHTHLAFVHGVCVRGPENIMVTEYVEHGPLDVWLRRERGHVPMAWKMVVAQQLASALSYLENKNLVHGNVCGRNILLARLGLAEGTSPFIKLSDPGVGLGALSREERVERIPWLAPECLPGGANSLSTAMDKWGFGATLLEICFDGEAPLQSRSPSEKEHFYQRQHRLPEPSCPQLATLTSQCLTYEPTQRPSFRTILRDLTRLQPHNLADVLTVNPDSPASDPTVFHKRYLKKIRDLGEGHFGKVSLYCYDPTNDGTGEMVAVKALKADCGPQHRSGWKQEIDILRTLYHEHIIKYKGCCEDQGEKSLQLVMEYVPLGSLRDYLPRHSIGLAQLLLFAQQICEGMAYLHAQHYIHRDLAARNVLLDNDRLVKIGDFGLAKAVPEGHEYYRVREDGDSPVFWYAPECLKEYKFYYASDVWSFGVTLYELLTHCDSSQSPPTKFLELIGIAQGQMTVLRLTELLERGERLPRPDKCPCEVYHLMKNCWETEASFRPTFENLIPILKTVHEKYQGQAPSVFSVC
T2 sequence (O60674 whole entry): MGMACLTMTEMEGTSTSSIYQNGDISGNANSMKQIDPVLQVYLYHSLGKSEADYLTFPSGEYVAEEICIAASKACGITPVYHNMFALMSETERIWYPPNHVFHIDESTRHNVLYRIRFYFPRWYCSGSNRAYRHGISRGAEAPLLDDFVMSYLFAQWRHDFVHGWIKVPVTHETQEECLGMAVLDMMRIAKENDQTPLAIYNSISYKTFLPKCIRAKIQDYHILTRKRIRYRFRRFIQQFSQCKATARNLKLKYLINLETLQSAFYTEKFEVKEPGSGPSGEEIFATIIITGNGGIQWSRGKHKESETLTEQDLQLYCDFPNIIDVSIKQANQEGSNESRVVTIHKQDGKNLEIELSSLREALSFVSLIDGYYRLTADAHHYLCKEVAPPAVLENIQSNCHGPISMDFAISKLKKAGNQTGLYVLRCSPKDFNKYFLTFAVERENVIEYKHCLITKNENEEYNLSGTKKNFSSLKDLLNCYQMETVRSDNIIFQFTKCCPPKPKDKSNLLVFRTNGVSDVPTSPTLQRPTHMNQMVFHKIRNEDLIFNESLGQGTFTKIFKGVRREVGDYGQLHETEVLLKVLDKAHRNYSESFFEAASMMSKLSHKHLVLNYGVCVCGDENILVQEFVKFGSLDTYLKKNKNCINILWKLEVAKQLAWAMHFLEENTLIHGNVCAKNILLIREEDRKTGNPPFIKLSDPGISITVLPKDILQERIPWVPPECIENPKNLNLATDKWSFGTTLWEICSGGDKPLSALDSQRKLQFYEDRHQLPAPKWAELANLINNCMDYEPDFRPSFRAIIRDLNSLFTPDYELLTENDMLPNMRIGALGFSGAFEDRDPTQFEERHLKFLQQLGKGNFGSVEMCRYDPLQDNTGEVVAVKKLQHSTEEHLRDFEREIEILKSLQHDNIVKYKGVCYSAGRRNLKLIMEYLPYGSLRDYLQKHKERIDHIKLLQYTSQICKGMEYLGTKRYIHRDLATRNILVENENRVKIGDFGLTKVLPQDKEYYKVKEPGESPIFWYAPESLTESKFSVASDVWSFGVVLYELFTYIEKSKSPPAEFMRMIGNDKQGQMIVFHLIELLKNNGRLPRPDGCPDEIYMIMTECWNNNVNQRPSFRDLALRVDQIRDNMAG

IC50 ([1]; read-out: Biochemical IC50 (nM) JAK1): 15 nM
IC50 ([1]; recombinant JAK1, TR-FRET, read-out: Biochemical Assay (μM) JAK1): < 100 nM
IC50 [2]: 105 nM
IC50 ([3]; read-out: Biochemical IC50 (nM) JAK3): 42 nM
IC50 ([3]; recombinant JAK3, TR-FRET, read-out: Biochemical Assay (μM) JAK3): < 100 nM
IC50 ([4]; read-out: Biochemical IC50 (nM) TYK2): > 1 nM
IC50 ([4]; recombinant TYK2, TR-FRET, read-out: Biochemical Assay (μM) TYK2): > 1000 nM
IC50 ([5]; IL-6 30 ng/ml, pSTAT3 HTRF, read-out: Cell Based Assay (μM) TF-1/IL-6/pSTAT3): > 0.5 µM
IC50 ([5]; IL-6 stimulation, read-out: Cell based IC50 (μM) TF-1/IL-6): 0.35 µM
IC50 ([6]; GM-CSF stimulation, read-out: Cell based IC50 (μM) TF-1/GM-CSF): > 10 µM
IC50 ([6]; GMCSF 5 ng/ml, pSTAT5 HTRF, read-out: Cell Based Assay (μM) TF-1/GMCSF/pSTAT5): > 1 µM
IC50 ([7]; IL-2 50 U/ml, pSTAT5 HTRF, read-out: Cell Based Assay (μM) HT-2/IL-2/pSTAT5): > 1 µM
IC50 ([7]; IL-2 stimulation, read-out: Cell based IC50 (μM) HT-2/IL-2): 0.9 µM
IC50 [8]: > 10 µM
SMILES: CS(=O)(=O)CC[C@@H](c1ccc(-n2cc(-c3ccnc4[nH]cnc34)cn2)nc1)C(F)(F)F [Example 1181, 7-(1-(5-((S)-1,1,1-trifluoro-4-(methylsulfonyl)butan-2-yl)pyridin-2-yl)-1H-pyrazol-4-yl)-3H-imidazo[4,5-b]pyridine]
efficacy (arthritis score) in collagen induced mouse arthritis model [9]: very good efficacy
